In ChEMBL document CHEMBL3351990, “Jiangrines A-F and jiangolide from an actinobacterium, Jiangella gansuensis” (J Nat Prod, 2014):
pIC50: −log10 of the molar value.

Tests used:
RAW264.7 [1] = test: Cytotoxicity against mouse RAW264.7 cells assessed as cell viability at 100 uM; assay type: cell-based; conditions: raw264.7, 100 µM
RAW264.7 [2] = test: Antiinflammatory activity in mouse RAW264.7 cells assessed as inhibition of LPS-induced NO production incubated for 1 hr prior to LPS-challenge measured after 24 hrs by Greiss assay; assay type: functional, cell-based
RAW264.7 [3] = test: Antiinflammatory activity in mouse RAW264.7 cells assessed as inhibition of LPS-induced NO production at 100 uM incubated for 1 hr prior to LPS-challenge measured after 24 hrs by Greiss assay; assay type: functional

Row | SMILES | Activity (RAW264.7 [1]) | pIC50 (RAW264.7 [2]) | inhibition at 100 µM (RAW264.7 [3])
1 | CO[C@H](c1ccc(C=O)n1CCc1ccc(O)cc1)[C@H](O)CO | Non-toxic | 4.52 | 
2 | CO[C@@H](c1ccc(C=O)n1CCc1ccc(O)cc1)[C@H](O)CO | Non-toxic | 4.52 | 
3 | CC(=O)NCCCCCn1cccc1C=O | Non-toxic | 4.26 | 
4 | O=Cc1ccc(CO)n1CCc1ccc(O)cc1 | Non-toxic | 4.23 | 
5 | O=c1[nH]cnc2c1-c1cccn1CC2 | Non-toxic |  | < 20%
6 | C[C@H]1/C=C\C[C@H]2[C@@H](CC[C@@H]2O)CC(=O)OC[C@H]2O[C@@H](O1)[C@H](O)[C@@H](O)[C@@H]2O | Non-toxic | 4.21 | 
7 | O=Cc1ccc([C@H](O)[C@H](O)CO)n1CCc1ccc(O)cc1 (relative stereo) | Non-toxic | 4.01 | 
8 | O=Cc1ccc([C@H](O)[C@H](O)CO)n1CCc1c[nH]c2ccccc12 (relative stereo) | Non-toxic | 4.22 | 
9 | COC(=O)[C@@H](N)CCCNC(=N)N[N+](=O)[O-] [L-NAME] |  | 4.27 | 
